Source: patent US10654847B2, “Substituted 2-(4-heterocyclylbenzyl)isoindolin-1-one analogs as positive allosteric modulators of the muscarinic acetylcholine receptor M1” (Vanderbilt University, priority 2011, dated 2020)
Like-named read-outs stand apart in the source and are kept apart here.

Molecular target: T1, mAChR M1 (UniProt P11229)
T1 sequence (P11229 1-460): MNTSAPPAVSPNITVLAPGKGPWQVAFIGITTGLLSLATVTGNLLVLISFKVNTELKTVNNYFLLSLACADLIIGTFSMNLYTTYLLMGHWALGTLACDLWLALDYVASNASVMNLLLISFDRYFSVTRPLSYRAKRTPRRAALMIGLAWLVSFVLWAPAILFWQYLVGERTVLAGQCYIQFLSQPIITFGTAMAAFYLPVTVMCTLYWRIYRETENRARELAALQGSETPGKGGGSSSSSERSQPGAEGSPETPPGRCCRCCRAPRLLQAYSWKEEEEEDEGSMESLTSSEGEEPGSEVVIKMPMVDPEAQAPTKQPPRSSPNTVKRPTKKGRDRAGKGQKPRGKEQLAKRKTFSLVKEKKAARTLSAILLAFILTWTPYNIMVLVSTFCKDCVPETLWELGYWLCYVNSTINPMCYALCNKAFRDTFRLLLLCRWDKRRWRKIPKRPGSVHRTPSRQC
Assay: mAChR M1 cell-based functional assay (calcium mobilization, potentiation of EC20 acetylcholine response)
Details: for Emax (%): % ACh maximum at 30 μM, mAChR M1-expressing CHO-K1 cells, calcium flux; for pEC50 / EC50: positive allosteric modulation of EC20 ACh response, mAChR M1 CHO-K1 cells; for pEC50: <5 estimated where no plateau; for EC50: >10 μM estimated where no plateau
Protocol: Chinese hamster ovary (CHO-K1) cells stably expressing rat (r)M1 were purchased from the American Type Culture Collection and cultured according to their indicated protocol. […] To make stable rM2, hM2, rM3, hM4, and rM4 cell lines for use in calcium mobilization assays, these cells also were stably transfected with a chimeric G-protein (Gqi5) (provided by B. R. Conklin, University of California, San Francisco) using Lipofectamine 2000. rM1, hM1, rM3, hM3, rM5, and hM5 cells were grown in Ham's F-12 medium containing 10% heat-inactivated fetal bovine serum (FBS), 20 mM HEPES, and 50 μg/mL G418 sulfate. rM2-Gqi5, hM2-Gqi5, and hM4-Gqi5 cells were grown in the same medium also containing 500 μg/mL Hygromycin B. Stable rM4-Gqi5 cells were grown in DMEM containing 10% heat-inactivated FBS, 20 mM HEPES, 400 μg/mL G418 sulfate, and 500 μg/mL Hygromycin B.
For high throughput measurement of agonist-evoked increases in intracellular calcium, CHO-K1 cells stably expressing muscarinic receptors were plated in growth medium lacking G418 and hygromycin at 15,000 cells/20 μL/well in Greiner 384-well black-walled, tissue culture (TC)-treated, clear-bottom plates (VWR). Cells were incubated overnight at 37° C. and 5% CO2. […] Compound master plates were formatted in an 11 point CRC format (1:3 dilutions) in 100% DMSO with a starting concentration of 10 mM using the BRAVO liquid handler (Agilent). Test compound CRCs were then transferred to daughter plates (240 nL) using the Echo acoustic plate reformatter (Labcyte, Sunnyvale, Calif.) and then diluted into assay buffer (40 μL) to a 2× stock using a Thermo Fisher Combi (Thermo Fisher Scientific, Waltham, Mass.).
Calcium flux was measured using the Functional Drug Screening System (FDSS) 6000 (Hamamatsu Corporation, Tokyo, Japan) as an increase in the fluorescent static ratio. Compounds were applied to cells (20 μL, 2×) using the automated system of the FDSS 6000 at 4 s into the 300 s protocol and the data were collected at 1 Hz. […] Agonist activity was analyzed as a concentration-dependent increase in calcium mobilization upon compound addition. Positive allosteric modulator activity was analyzed as a concentration-dependent increase in the EC20 acetylcholine response. Antagonist activity was analyzed as a concentration-dependent decrease in the EC80 acetylcholine response. Concentration-response curves were generated using a four-parameter logistical equation in XLfit curve fitting software (IDBS, Bridgewater, N.J.) for Excel (Microsoft, Redmond, Wash.) or Prism (GraphPad Software, Inc., San Diego, Calif.).
The above described assay was also operated in a second mode where an appropriate fixed concentration of the present compounds were added to the cells after establishment of a fluorescence baseline for about 3 seconds, and the response in cells was measured. […] Data were reduced as described above and the EC50 values for the agonist in the presence of test compound were determined by nonlinear curve fitting. A decrease in the EC50 value of the agonist with increasing concentrations of the present compounds (a leftward shift of the agonist concentration-response curve) is an indication of the degree of muscarinic positive allosteric modulation at a given concentration of the present compound. An increase in the EC50 value of the agonist with increasing concentrations of the present compounds (a rightward shift of the agonist concentration response curve) is an indication of the degree of muscarinic antagonism at a given concentration of the present compound. The second mode also indicates whether the present compounds also affect the maximum response of the muscarinic receptor to agonists.
The calcium mobilization assay was also used to determine “efficacy”.

Emax (%) | pEC50 | EC50 (read-out: EC50) [nM] | SMILES | EC50 [nM]
44 | 5.43 | 3720 | O=C1c2cccnc2CN1Cc1ccc(-c2ccnc3ccccc23)cc1F [Example B45] | –
33 | 5.99 | 1020 | Cc1cc(-c2ccc(CN3Cc4ncccc4C3=O)c(F)c2)cnc1Cl [Example B46] | –
54 | 5.22 | 6030 | O=C1c2cccnc2CN1Cc1ccc(-c2cccnc2)cc1F [Example B47] | –
65 | 6.08 | 832 | O=C1c2cccnc2CN1Cc1ccc(-c2ccc3ncccc3c2)cc1F [Example B48] | –
68 | 5.81 | 1550 | O=C1c2cccnc2CN1Cc1ccc(-c2ccc3ccncc3c2)cc1F [Example B49] | –
34 | 6.01 | 977 | COc1ccc(-c2ccc(CN3Cc4ncccc4C3=O)c(F)c2)cc1 [Example B50] | –
73 | 6.59 | 257 | Cn1cc2cc(-c3cc(F)c(CN4Cc5ncccc5C4=O)c(F)c3)ccc2n1 [Example B51] | –
53 | <5.00 | > 10000 | CN(C)c1ccc(-c2ccc(CN3Cc4ncccc4C3=O)c(F)c2)cc1 [Example B52] | –
81 | 6.13 | 741 | Cn1cnc2ccc(-c3ccc(CN4Cc5ncccc5C4=O)c(F)c3)cc21 [Example B54] | –
80 | 6.40 | 398 | Cn1cc2cc(-c3ccc(CN4Cc5ncncc5C4=O)c(F)c3)ccc2n1 [Example B56] | –
69 | 5.68 | 2090 | O=C1c2cccnc2CN1Cc1ccc(-c2ccc3nccn3c2)cc1F [Example B57] | –
66 | 5.43 | 3720 | Cn1cc2cc(Nc3ccc(CN4Cc5ncccc5C4=O)c(F)c3)ccc2n1 [Example B58] | –
56 | 6.30 | 501 | Cn1cc2cc(-c3ccc(CN4Cc5ncccc5C4=O)cc3)ccc2n1 [Example B59] | –
76 | 5.80 | 1590 | Cn1ncc2ccc(-c3ccc(CN4Cc5cccnc5C4=O)c(F)c3)cc21 [Example B60] | –
38 | <5.00 | > 10000 | Cn1ncc2cc(-c3ccc(CN4Cc5cccnc5C4=O)c(F)c3)ccc21 [Example B61] | –
72 | 6.07 | 851 | Cn1cc2c(-c3ccc(CN4Cc5cccnc5C4=O)c(F)c3)cccc2n1 [Example B62] | –
48 | 5.73 | 1860 | Cc1cc(-c2ccc(CN3Cc4cccnc4C3=O)c(F)c2)cnc1Cl [Example B63] | –
50 | <5.00 | > 10000 | O=C1c2ncccc2CN1Cc1ccc(-c2cccnc2)cc1F [Example B64] | –
56 | <5.00 | > 10000 | O=C1c2ncccc2CN1Cc1ccc(-c2ccncc2)cc1F [Example B65] | –
52 | 5.84 | 1440 | O=C1c2ncccc2CN1Cc1ccc(-c2cnc3ccccc3c2)cc1F [Example B66] | –

Emax (%) | pEC50 | EC50 (read-out: EC50) [nM] | SMILES | EC50 [nM]
56 | 5.28 | 5250 | O=C1c2ncccc2CN1Cc1ccc(-c2cccnc2)cc1Cl [Example B67] | –
56 | <5.00 | > 10000 | O=C1c2ncccc2CN1Cc1ccc(-c2ccncc2)cc1Cl [Example B68] | –
52 | 5.87 | 1350 | O=C1c2ncccc2CN1Cc1ccc(-c2ccc3cnccc3c2)cc1Cl [Example B69] | –
59 | 5.68 | 2090 | O=C1c2ncccc2CN1Cc1ccc(-c2ccc3ccncc3c2)cc1F [Example B70] | –
72 | 6.15 | 708 | Cn1cc2cc(-c3ccc(CN4Cc5cccnc5C4=O)c(F)c3)ccc2n1 [Example B71] | –
79 | 5.70 | 2000 | Cn1cc2ccc(-c3ccc(CN4Cc5cccnc5C4=O)c(F)c3)cc2n1 [Example B72] | –
38 | <5.00 | > 10000 | O=C1c2ncccc2CN1Cc1ccc(-c2cncc(Cl)c2)cc1F [Example B73] | –
58 | 5.73 | 1860 | CN(C)c1ccc(-c2ccc(CN3Cc4cccnc4C3=O)c(Cl)c2)cn1 [Example B74] | –
42 | 5.70 | 2000 | Cc1cc(-c2ccc(CN3Cc4cccnc4C3=O)c(Cl)c2)cnc1Cl [Example B75] | –
35 | 5.83 | 1480 | COc1ccc(-c2ccc(CN3Cc4cccnc4C3=O)c(Cl)c2)cc1 [Example B76] | –
42 | 5.74 | 1820 | O=C1c2ncccc2CN1Cc1ccc(-c2cccc3ncccc23)cc1F [Example B77] | –
48 | 5.90 | 1260 | CN(C)c1ccc(-c2ccc(CN3Cc4cccnc4C3=O)c(F)c2)cn1 [Example B78] | –
62 | 5.83 | 1480 | O=C1c2ncccc2CN1Cc1ccc(-c2ccc3cnccc3c2)cc1F [Example B79] | –
57 | 6.07 | 851 | O=C1c2cccnc2CN1Cc1c(F)cc(-c2ccc3nccn3c2)cc1F [Example B80] | –
80 | 6.80 | 158 | Cn1cc2c(-c3cc(F)c(CN4Cc5ncccc5C4=O)c(F)c3)cccc2n1 [Example B81] | –
72 | 6.40 | 398 | Cn1cnc2ccc(-c3cc(F)c(CN4Cc5ncccc5C4=O)c(F)c3)cc21 [Example B82] | –
34 | <5.00 | > 10000 | Cc1cc(-c2cnc(Cl)c(C)c2)ccc1CN1Cc2cccnc2C1=O [Example B83] | –
41 | <5.00 | > 10000 | Cc1cc(-c2ccncc2)ccc1CN1Cc2cccnc2C1=O [Example B84] | –
41 | <5.00 | > 10000 | Cc1cc(-c2cccnc2)ccc1CN1Cc2cccnc2C1=O [Example B85] | –

SMILES | Emax (%) | pEC50 | EC50 (read-out: EC50) [nM] | EC50 [nM]
CN1CC=C(c2ccc(CN3Cc4ncccc4C3=O)c(F)c2)CC1 [Example B53] | 80 | 5.51 | 3090 | –
CN1CCc2cc(-c3ccc(CN4Cc5ncccc5C4=O)c(F)c3)ccc21 [Example B55] | 60 | 5.64 | – | 2290
